Measurements reported in PubChem BioAssay AID1918954 (Molecular Pharmacology Branch, DTP, NCI, 2023).

System: MDA-MB-468 complex spheroids with HUVEC/MSC, viability
Assay: Anticancer human tumor MDA-MB-468 cell line growth inhibition;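 also: spheroids exposed to agents for seven days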;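 as to viability, T/C: 100% = DMSO vehicle control viability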
Details: for IC50: curve of first compound; for viability, T/C: stronger effect = lower value
In short: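 Multicellular complex spheroids of tumor cells with human endothelial cells (HUVEC) and mesenchymal stem cells; the LSD1 inhibitor iadademstat was combined with standard-of-care or investigational agents. Top concentration at or near clinical Cmax, half-log dilutions; final DMSO ≤0.25%.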

[1] = second compound 0.1 µM, first compound 0.00949 µM
[2] = second compound 0.1 µM, first compound 0.03 µM
[3] = second compound 0.1 µM, first compound 0.0949 µM
[4] = second compound 0.1 µM, first compound 0.3 µM
[5] = second compound 0.1 µM, first compound 0.949 µM
[6] = second compound 0.1 µM, first compound 3 µM
[7] = second compound 0.316 µM, first compound 0.00949 µM
[8] = second compound 0.316 µM, first compound 0.03 µM
[9] = second compound 0.316 µM, first compound 0.0949 µM
[10] = second compound 0.316 µM, first compound 0.3 µM
[11] = second compound 0.316 µM, first compound 0.949 µM
[12] = second compound 0.316 µM, first compound 3 µM
[13] = second compound 1 µM, first compound 0.00949 µM
[14] = second compound 1 µM, first compound 0.03 µM
[15] = second compound 1 µM, first compound 0.0949 µM
[16] = second compound 1 µM, first compound 0.3 µM
[17] = second compound 1 µM, first compound 0.949 µM
[18] = second compound 1 µM, first compound 3 µM
[19] = second compound 3.16 µM, first compound 0.00949 µM
[20] = second compound 3.16 µM, first compound 0.03 µM
[21] = second compound 3.16 µM, first compound 0.0949 µM
[22] = second compound 3.16 µM, first compound 0.3 µM
[23] = second compound 3.16 µM, first compound 0.949 µM
[24] = second compound 3.16 µM, first compound 3 µM
[25] = second compound 10 µM, first compound 0.00949 µM
[26] = second compound 10 µM, first compound 0.03 µM
[27] = second compound 10 µM, first compound 0.0949 µM
[28] = second compound 10 µM, first compound 0.3 µM
[29] = second compound 10 µM, first compound 0.949 µM
[30] = second compound 10 µM, first compound 3 µM

Cn1ncnc1C1c2n[nH]c(=O)c3cc(F)cc(c23)NC1c1ccc(F)cc1 (stereo not given) + NC1CC1c1ccc(-c2cccc(O)c2)cc1
IC50 (second compound 0.1 µM): 87.7 nM | IC50 (second compound 0.316 µM): > 100 nM | IC50 (second compound 1 µM): > 100 nM | IC50 (second compound 3.16 µM): 12 nM | IC50 (second compound 10 µM): 2.6 nM | viability, T/C (second compound 0.1 µM, first compound 0.000316 µM): 98.1% | viability, T/C (second compound 0.1 µM, first compound 0.001 µM): 102% | viability, T/C (second compound 0.1 µM, first compound 0.00316 µM): 72.5% | viability, T/C (second compound 0.1 µM, first compound 0.01 µM): 73.1% | viability, T/C (second compound 0.1 µM, first compound 0.0316 µM): 64.6% | viability, T/C (second compound 0.1 µM, first compound 0.1 µM): 46.7% | viability, T/C (second compound 0.316 µM, first compound 0.000316 µM): 120% | viability, T/C (second compound 0.316 µM, first compound 0.001 µM): 79.1% | viability, T/C (second compound 0.316 µM, first compound 0.00316 µM): 67.4% | viability, T/C (second compound 0.316 µM, first compound 0.01 µM): 60.9% | viability, T/C (second compound 0.316 µM, first compound 0.0316 µM): 52.8% | viability, T/C (second compound 0.316 µM, first compound 0.1 µM): 46% | viability, T/C (second compound 1 µM, first compound 0.000316 µM): 93.2% | viability, T/C (second compound 1 µM, first compound 0.001 µM): 112% | viability, T/C (second compound 1 µM, first compound 0.00316 µM): 67% | viability, T/C (second compound 1 µM, first compound 0.01 µM): 57.6% | viability, T/C (second compound 1 µM, first compound 0.0316 µM): 61.9% | viability, T/C (second compound 1 µM, first compound 0.1 µM): 42.4% | viability, T/C (second compound 3.16 µM, first compound 0.000316 µM): 92.8% | viability, T/C (second compound 3.16 µM, first compound 0.001 µM): 85.5% | viability, T/C (second compound 3.16 µM, first compound 0.00316 µM): 74.5% | viability, T/C (second compound 3.16 µM, first compound 0.01 µM): 48.2% | viability, T/C (second compound 3.16 µM, first compound 0.0316 µM): 50.6% | viability, T/C (second compound 3.16 µM, first compound 0.1 µM): 39.1% | viability, T/C (second compound 10 µM, first compound 0.000316 µM): 74.1% | viability, T/C (second compound 10 µM, first compound 0.001 µM): 67.7% | viability, T/C (second compound 10 µM, first compound 0.00316 µM): 45.9% | viability, T/C (second compound 10 µM, first compound 0.01 µM): 33.5% | viability, T/C (second compound 10 µM, first compound 0.0316 µM): 34.8% | viability, T/C (second compound 10 µM, first compound 0.1 µM): 26.3%

NS(=O)(=O)OCC1CC(n2ccc3c(NC4CCc5ccccc54)ncnc32)CC1O (stereo not given) + NC1CC1c1ccc(-c2cccc(O)c2)cc1
IC50 (second compound 0.1 µM): 11.5 nM | IC50 (second compound 0.316 µM): 11.2 nM | IC50 (second compound 1 µM): < 9.49 nM | IC50 (second compound 3.16 µM): < 9.49 nM | IC50 (second compound 10 µM): < 9.49 nM | viability, T/C [1]: 54.5% | viability, T/C [2]: 28.2% | viability, T/C [3]: 9.26% | viability, T/C [4]: 5.09% | viability, T/C [5]: 2.96% | viability, T/C [6]: 2.17% | viability, T/C [7]: 54.2% | viability, T/C [8]: 26.2% | viability, T/C [9]: 9.29% | viability, T/C [10]: 5.11% | viability, T/C [11]: 3% | viability, T/C [12]: 2.26% | viability, T/C [13]: 45.8% | viability, T/C [14]: 20.7% | viability, T/C [15]: 9.67% | viability, T/C [16]: 4.9% | viability, T/C [17]: 3.15% | viability, T/C [18]: 2.38% | viability, T/C [19]: 36.5% | viability, T/C [20]: 18.4% | viability, T/C [21]: 9.14% | viability, T/C [22]: 5.23% | viability, T/C [23]: 3.44% | viability, T/C [24]: 2.31% | viability, T/C [25]: 20.9% | viability, T/C [26]: 12.1% | viability, T/C [27]: 5.43% | viability, T/C [28]: 3.74% | viability, T/C [29]: 2.55% | viability, T/C [30]: 2.05%

O=C(C=Cc1cccc(S(=O)(=O)Nc2ccccc2)c1)NO + NC1CC1c1ccc(-c2cccc(O)c2)cc1
IC50 (second compound 0.1 µM): 59.9 nM | IC50 (second compound 0.316 µM): 44.2 nM | IC50 (second compound 1 µM): 53.3 nM | IC50 (second compound 3.16 µM): 49.8 nM | IC50 (second compound 10 µM): 26.2 nM | viability, T/C [1]: 88.7% | viability, T/C [2]: 74.8% | viability, T/C [3]: 25.8% | viability, T/C [4]: 2.15% | viability, T/C [5]: 0.17% | viability, T/C [6]: 106% | viability, T/C [7]: 96.3% | viability, T/C [8]: 59.3% | viability, T/C [9]: 23.1% | viability, T/C [10]: 2.07% | viability, T/C [11]: 0.17% | viability, T/C [12]: 101% | viability, T/C [13]: 92.9% | viability, T/C [14]: 70.3% | viability, T/C [15]: 25.5% | viability, T/C [16]: 2.36% | viability, T/C [17]: 0.14% | viability, T/C [18]: 90.9% | viability, T/C [19]: 83.1% | viability, T/C [20]: 64.5% | viability, T/C [21]: 23% | viability, T/C [22]: 2.23% | viability, T/C [23]: 0.16% | viability, T/C [24]: 101% | viability, T/C [25]: 67.7% | viability, T/C [26]: 47.7% | viability, T/C [27]: 17.7% | viability, T/C [28]: 1.86% | viability, T/C [29]: 0.19% | viability, T/C [30]: 79.1%
